Experimental data reported in the kinase profiling compilation of Christmann-Franck et al. (2016).

How the values were obtained:
Assay in all cases: KINOMEscan competition binding
Conditions in all cases: compound 1.0 µM
CSNK1G2 (human) = CSNK1G2 (human) (UniProt P78368)
MAP3K7 (human) = MAP3K7 (human) (UniProt O43318)
TESK1 (human) = TESK1 (human) (UniProt Q15569)
CSNK2A1 (human) = CSNK2A1 (human) (UniProt P68400)
ERN1 (human) = ERN1 (human) (UniProt O75460)
[1] = system: FLT3 (human), P36888 [ITD]
MERTK (human) = MERTK (human) (UniProt Q12866)
STK36 (human) = STK36 (human) (UniProt Q9NRP7)
Chain of STK36 (human) (Q9NRP7 whole entry, looked up): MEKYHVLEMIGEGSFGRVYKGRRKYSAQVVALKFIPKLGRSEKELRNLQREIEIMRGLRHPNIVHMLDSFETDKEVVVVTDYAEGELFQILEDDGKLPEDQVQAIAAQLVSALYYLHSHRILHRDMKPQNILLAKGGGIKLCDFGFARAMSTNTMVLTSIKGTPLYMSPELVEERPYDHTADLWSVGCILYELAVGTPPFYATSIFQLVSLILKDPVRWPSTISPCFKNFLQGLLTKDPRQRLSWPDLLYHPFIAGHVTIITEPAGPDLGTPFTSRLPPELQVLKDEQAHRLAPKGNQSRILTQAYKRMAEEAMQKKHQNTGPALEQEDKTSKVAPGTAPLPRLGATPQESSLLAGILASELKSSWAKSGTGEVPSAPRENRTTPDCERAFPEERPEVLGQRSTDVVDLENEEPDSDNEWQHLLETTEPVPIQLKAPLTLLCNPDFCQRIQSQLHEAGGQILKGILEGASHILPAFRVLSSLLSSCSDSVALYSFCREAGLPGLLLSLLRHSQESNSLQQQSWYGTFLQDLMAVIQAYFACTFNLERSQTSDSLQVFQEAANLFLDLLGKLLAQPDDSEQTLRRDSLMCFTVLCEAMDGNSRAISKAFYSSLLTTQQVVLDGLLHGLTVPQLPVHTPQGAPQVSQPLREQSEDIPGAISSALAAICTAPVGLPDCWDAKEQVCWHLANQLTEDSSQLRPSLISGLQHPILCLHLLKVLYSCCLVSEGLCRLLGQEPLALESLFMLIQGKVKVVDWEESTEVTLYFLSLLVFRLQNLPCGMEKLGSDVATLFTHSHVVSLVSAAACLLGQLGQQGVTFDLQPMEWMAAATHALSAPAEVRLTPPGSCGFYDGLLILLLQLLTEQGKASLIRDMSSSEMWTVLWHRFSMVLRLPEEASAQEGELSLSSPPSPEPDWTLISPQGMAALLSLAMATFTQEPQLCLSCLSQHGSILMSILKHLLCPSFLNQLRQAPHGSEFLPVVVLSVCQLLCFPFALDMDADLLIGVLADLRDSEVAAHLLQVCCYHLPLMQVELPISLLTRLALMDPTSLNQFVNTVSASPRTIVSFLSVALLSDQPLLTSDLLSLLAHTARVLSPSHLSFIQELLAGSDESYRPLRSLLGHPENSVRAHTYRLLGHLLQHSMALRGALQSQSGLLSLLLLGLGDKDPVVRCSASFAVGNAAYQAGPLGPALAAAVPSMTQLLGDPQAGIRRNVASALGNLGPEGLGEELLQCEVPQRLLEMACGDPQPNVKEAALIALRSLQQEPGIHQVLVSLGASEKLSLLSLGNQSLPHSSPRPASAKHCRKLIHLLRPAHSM

MUSK (human) = MUSK (human) (UniProt O15146)
PAK6 (human) = PAK6 (human) (UniProt Q9NQU5)
CDKL2 (human) = CDKL2 (human) (UniProt Q92772)
MST4 (human) = MST4 (human) (UniProt Q9P289)
AKT1 (human) = AKT1 (human) (UniProt P31749)
WEE2 (human) = WEE2 (human) (UniProt P0C1S8)
PIK3CA (human) = PIK3CA (human) (UniProt P42336)
PIP4K2C (human) = PIP4K2C (human) (UniProt Q8TBX8)
LATS2 (human) = LATS2 (human) (UniProt Q9NRM7)
Chain of LATS2 (human) (Q9NRM7 whole entry, looked up): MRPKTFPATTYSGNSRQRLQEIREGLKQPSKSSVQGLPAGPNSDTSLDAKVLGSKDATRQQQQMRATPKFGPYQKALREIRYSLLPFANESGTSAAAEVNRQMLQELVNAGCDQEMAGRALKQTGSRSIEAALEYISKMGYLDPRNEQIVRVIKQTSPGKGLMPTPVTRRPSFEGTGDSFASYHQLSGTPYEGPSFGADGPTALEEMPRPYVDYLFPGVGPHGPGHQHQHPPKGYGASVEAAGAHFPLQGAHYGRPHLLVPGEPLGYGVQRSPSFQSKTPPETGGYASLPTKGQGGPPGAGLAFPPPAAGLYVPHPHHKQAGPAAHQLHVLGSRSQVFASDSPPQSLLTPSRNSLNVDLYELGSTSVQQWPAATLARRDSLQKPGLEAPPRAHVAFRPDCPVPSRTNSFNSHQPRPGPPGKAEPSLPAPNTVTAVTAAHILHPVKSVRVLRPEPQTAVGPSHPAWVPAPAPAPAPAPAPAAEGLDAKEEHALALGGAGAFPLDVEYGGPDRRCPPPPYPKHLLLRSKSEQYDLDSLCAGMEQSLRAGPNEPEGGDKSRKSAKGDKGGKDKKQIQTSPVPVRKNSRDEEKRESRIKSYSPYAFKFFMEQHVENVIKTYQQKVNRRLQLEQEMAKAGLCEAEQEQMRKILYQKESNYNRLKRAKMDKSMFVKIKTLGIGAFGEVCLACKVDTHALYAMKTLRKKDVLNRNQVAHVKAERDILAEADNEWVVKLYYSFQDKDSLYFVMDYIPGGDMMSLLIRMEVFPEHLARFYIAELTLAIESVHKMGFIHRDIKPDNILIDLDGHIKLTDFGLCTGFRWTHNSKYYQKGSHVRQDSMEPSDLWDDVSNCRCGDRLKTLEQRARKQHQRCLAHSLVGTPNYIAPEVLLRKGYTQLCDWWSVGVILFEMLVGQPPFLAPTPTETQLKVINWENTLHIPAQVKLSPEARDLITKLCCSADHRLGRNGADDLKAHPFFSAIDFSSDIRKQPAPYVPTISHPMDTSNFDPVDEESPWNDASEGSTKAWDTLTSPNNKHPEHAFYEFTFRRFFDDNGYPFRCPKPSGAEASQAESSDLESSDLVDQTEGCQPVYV

TNK1 (human) = TNK1 (human) (UniProt Q13470)
DAPK2 (human) = DAPK2 (human) (UniProt Q9UIK4)
SYK (human) = SYK (human) (UniProt P43405)
PRKG1 (human) = PRKG1 (human) (UniProt Q13976)
[2] = system: KIT (human), P10721 [D816H]
Chain of KIT (human), P10721 [D816H] (P10721 whole entry D816H, looked up): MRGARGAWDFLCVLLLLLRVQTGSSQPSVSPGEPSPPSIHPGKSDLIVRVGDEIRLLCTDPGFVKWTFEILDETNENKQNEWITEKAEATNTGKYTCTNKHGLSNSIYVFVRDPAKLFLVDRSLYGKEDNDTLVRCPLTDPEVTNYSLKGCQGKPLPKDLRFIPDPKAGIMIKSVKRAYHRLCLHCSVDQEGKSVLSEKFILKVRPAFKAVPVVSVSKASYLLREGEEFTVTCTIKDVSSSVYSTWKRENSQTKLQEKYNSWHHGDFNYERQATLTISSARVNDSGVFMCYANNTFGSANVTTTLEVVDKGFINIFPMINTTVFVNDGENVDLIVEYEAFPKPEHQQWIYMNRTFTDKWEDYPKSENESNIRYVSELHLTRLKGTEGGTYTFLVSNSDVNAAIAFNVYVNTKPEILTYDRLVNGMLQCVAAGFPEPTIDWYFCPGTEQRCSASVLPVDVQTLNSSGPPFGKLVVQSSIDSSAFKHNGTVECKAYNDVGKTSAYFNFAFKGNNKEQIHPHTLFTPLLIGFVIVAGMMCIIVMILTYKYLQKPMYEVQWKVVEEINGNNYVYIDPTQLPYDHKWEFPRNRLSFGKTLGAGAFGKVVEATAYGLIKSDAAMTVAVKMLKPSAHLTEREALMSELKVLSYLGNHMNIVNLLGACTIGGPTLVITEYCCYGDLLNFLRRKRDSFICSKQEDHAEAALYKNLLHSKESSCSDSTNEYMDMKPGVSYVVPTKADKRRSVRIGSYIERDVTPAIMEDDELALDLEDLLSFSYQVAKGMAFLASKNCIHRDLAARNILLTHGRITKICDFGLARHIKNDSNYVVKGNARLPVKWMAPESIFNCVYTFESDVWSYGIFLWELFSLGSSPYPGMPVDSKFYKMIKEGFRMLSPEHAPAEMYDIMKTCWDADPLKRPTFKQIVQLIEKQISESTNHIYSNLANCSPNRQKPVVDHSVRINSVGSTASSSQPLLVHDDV

MATK (human) = MATK (human) (UniProt P42679)
[3] = system: ABL1 (human), P00519 [Y253F]
PI4KB (human) = PI4KB (human) (UniProt Q9UBF8)
LIMK2 (human) = LIMK2 (human) (UniProt P53671)
PTK6 (human) = PTK6 (human) (UniProt Q13882)
Chain of PTK6 (human) (Q13882 whole entry, looked up): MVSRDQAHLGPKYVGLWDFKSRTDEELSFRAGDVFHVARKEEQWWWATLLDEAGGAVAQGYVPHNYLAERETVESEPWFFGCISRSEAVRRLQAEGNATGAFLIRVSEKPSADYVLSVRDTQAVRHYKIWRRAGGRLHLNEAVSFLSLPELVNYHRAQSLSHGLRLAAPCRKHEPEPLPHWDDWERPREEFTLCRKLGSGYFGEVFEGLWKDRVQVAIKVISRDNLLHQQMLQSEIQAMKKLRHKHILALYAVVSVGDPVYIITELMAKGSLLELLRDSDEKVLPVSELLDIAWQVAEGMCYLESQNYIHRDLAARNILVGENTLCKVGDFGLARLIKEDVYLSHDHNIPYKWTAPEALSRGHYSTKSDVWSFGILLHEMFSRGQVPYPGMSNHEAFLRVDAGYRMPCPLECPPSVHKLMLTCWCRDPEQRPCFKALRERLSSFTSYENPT

GRK1 (human) = GRK1 (human) (UniProt Q15835)
[4] = system: MET (human), P08581 [Y1235D]
PKMYT1 (human) = PKMYT1 (human) (UniProt Q99640)
Chain of PKMYT1 (human) (Q99640 whole entry, looked up): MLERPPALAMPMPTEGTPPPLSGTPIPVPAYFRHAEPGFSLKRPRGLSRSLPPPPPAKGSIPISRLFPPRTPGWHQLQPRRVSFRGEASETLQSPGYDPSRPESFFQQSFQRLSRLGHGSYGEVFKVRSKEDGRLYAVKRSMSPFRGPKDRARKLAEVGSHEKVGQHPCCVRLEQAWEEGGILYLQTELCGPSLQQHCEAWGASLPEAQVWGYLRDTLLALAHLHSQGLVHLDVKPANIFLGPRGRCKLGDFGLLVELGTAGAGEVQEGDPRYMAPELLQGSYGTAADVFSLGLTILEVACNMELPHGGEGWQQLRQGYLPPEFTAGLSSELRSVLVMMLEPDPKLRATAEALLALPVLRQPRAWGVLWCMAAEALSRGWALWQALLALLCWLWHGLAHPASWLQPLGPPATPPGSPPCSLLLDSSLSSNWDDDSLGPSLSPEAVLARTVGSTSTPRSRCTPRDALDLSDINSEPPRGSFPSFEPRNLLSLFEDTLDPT

PDPK1 (human) = PDPK1 (human) (UniProt O15530)
CAMK2G (human) = CAMK2G (human) (UniProt Q13555)
RIPK1 (human) = RIPK1 (human) (UniProt Q13546)
[5] = system: KIT (human), P10721 [D816V]
Chain of KIT (human), P10721 [D816V] (P10721 whole entry D816V, looked up): as the sequence (P10721 whole entry D816H, looked up) above, with H816V counted along it

PIP5K1C (human) = PIP5K1C (human) (UniProt O60331)
Chain of PIP5K1C (human) (O60331 whole entry, looked up): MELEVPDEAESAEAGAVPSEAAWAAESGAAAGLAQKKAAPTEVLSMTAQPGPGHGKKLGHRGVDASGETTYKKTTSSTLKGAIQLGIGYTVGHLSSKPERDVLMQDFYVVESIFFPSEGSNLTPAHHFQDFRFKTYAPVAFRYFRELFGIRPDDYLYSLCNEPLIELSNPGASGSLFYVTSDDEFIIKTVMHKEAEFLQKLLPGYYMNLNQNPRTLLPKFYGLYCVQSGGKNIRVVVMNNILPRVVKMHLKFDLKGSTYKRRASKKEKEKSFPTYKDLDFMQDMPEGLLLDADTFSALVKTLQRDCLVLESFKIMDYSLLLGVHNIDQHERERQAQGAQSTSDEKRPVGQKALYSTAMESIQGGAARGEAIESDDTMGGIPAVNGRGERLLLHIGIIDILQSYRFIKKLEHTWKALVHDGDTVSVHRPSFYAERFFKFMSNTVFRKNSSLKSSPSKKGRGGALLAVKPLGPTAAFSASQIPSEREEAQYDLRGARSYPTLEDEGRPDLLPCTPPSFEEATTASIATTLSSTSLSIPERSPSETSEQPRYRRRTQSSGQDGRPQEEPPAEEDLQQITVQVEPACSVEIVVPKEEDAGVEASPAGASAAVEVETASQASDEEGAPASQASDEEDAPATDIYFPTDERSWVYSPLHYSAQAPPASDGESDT

AXL (human) = AXL (human) (UniProt P30530)
EPHA7 (human) = EPHA7 (human) (UniProt Q15375)
PDGFRA (human) = PDGFRA (human) (UniProt P16234)
PLK4 (human) = PLK4 (human) (UniProt O00444)
PAK4 (human) = PAK4 (human) (UniProt O96013)
TAOK3 (human) = TAOK3 (human) (UniProt Q9H2K8)
EPHB2 (human) = EPHB2 (human) (UniProt P29323)
PRKACA (human) = PRKACA (human) (UniProt P17612)

## Cc1cc(NC(=O)c2cccc(NC(=O)/C=C/CN(C)C)c2)ccc1Nc1nccc(-c2cccnc2)n1
CSNK1G2 (human)
  kinase still bound, per cent of control: 73%
MAP3K7 (human)
  kinase still bound, per cent of control: 61%
TESK1 (human)
  kinase still bound, per cent of control: 100%
CSNK2A1 (human)
  kinase still bound, per cent of control: 57%
ERN1 (human)
  kinase still bound, per cent of control: 73%
[1]
  kinase still bound, per cent of control: 50%
MERTK (human)
  kinase still bound, per cent of control: 100%
STK36 (human)
  kinase still bound, per cent of control: 91%
MUSK (human)
  kinase still bound, per cent of control: 100%
PAK6 (human)
  kinase still bound, per cent of control: 100%
CDKL2 (human)
  kinase still bound, per cent of control: 82%
MST4 (human)
  kinase still bound, per cent of control: 82%
AKT1 (human)
  kinase still bound, per cent of control: 100%
WEE2 (human)
  kinase still bound, per cent of control: 100%
PIK3CA (human)
  kinase still bound, per cent of control: 100%
PIP4K2C (human)
  kinase still bound, per cent of control: 46%
LATS2 (human)
  kinase still bound, per cent of control: 74%
TNK1 (human)
  kinase still bound, per cent of control: 60%
DAPK2 (human)
  kinase still bound, per cent of control: 77%
SYK (human)
  kinase still bound, per cent of control: 100%
PRKG1 (human)
  kinase still bound, per cent of control: 72%
[2]
  kinase still bound, per cent of control: 68%
MATK (human)
  kinase still bound, per cent of control: 81%
[3]
  kinase still bound, per cent of control: 71%
PI4KB (human)
  kinase still bound, per cent of control: 82%
LIMK2 (human)
  kinase still bound, per cent of control: 98%
PTK6 (human)
  kinase still bound, per cent of control: 100%
GRK1 (human)
  kinase still bound, per cent of control: 100%
[4]
  kinase still bound, per cent of control: 100%
PKMYT1 (human)
  kinase still bound, per cent of control: 69%
PDPK1 (human)
  kinase still bound, per cent of control: 61%
CAMK2G (human)
  kinase still bound, per cent of control: 100%
RIPK1 (human)
  kinase still bound, per cent of control: 51%
[5]
  kinase still bound, per cent of control: 54%
PIP5K1C (human)
  kinase still bound, per cent of control: 93%
AXL (human)
  kinase still bound, per cent of control: 77%
EPHA7 (human)
  kinase still bound, per cent of control: 100%
PDGFRA (human)
  kinase still bound, per cent of control: 71%
PLK4 (human)
  kinase still bound, per cent of control: 58%
PAK4 (human)
  kinase still bound, per cent of control: 100%
TAOK3 (human)
  kinase still bound, per cent of control: 66%
EPHB2 (human)
  kinase still bound, per cent of control: 100%
PRKACA (human)
  kinase still bound, per cent of control: 100%

## CN(C)C/C=C/C(=O)Nc1cccc(C(=O)Nc2ccc(Nc3nccc(/C(C#N)=C4\Nc5ccccc5S4)n3)cc2)c1
CSNK1G2 (human)
  kinase still bound, per cent of control: 22%
MAP3K7 (human)
  kinase still bound, per cent of control: 58%
TESK1 (human)
  kinase still bound, per cent of control: 100%
CSNK2A1 (human)
  kinase still bound, per cent of control: 27%
ERN1 (human)
  kinase still bound, per cent of control: 100%
[1]
  kinase still bound, per cent of control: 57%
MERTK (human)
  kinase still bound, per cent of control: 66%
STK36 (human)
  kinase still bound, per cent of control: 95%
MUSK (human)
  kinase still bound, per cent of control: 70%
PAK6 (human)
  kinase still bound, per cent of control: 100%
CDKL2 (human)
  kinase still bound, per cent of control: 28%
MST4 (human)
  kinase still bound, per cent of control: 100%
AKT1 (human)
  kinase still bound, per cent of control: 6.6%
WEE2 (human)
  kinase still bound, per cent of control: 100%
PIK3CA (human)
  kinase still bound, per cent of control: 64%
PIP4K2C (human)
  kinase still bound, per cent of control: 35%
LATS2 (human)
  kinase still bound, per cent of control: 100%
TNK1 (human)
  kinase still bound, per cent of control: 15%
DAPK2 (human)
  kinase still bound, per cent of control: 100%
SYK (human)
  kinase still bound, per cent of control: 85%
PRKG1 (human)
  kinase still bound, per cent of control: 100%
[2]
  kinase still bound, per cent of control: 100%
MATK (human)
  kinase still bound, per cent of control: 100%
[3]
  kinase still bound, per cent of control: 100%
PI4KB (human)
  kinase still bound, per cent of control: 65%
LIMK2 (human)
  kinase still bound, per cent of control: 97%
PTK6 (human)
  kinase still bound, per cent of control: 100%
GRK1 (human)
  kinase still bound, per cent of control: 100%
[4]
  kinase still bound, per cent of control: 100%
PKMYT1 (human)
  kinase still bound, per cent of control: 100%
PDPK1 (human)
  kinase still bound, per cent of control: 100%
CAMK2G (human)
  kinase still bound, per cent of control: 100%
RIPK1 (human)
  kinase still bound, per cent of control: 85%
[5]
  kinase still bound, per cent of control: 41%
PIP5K1C (human)
  kinase still bound, per cent of control: 100%
AXL (human)
  kinase still bound, per cent of control: 100%
EPHA7 (human)
  kinase still bound, per cent of control: 100%
PDGFRA (human)
  kinase still bound, per cent of control: 100%
PLK4 (human)
  kinase still bound, per cent of control: 97%
PAK4 (human)
  kinase still bound, per cent of control: 100%
TAOK3 (human)
  kinase still bound, per cent of control: 100%
EPHB2 (human)
  kinase still bound, per cent of control: 77%
PRKACA (human)
  kinase still bound, per cent of control: 88%
